Results taken from patent publication US20190343908A1, “Therapeutic Combination for the Treatment of Cancer” (Nerium Biotechnology Inc., priority 2011, published 2019).

Columns and labels:
[1] = tested on: T47D (human breast cancer); test: Crystal Violet viability assay, T47D; type: cell-based; set-up: key: absorbance at 570 nm (crystal violet), background wavelength subtracted
From the text: (§1) Three different viability assays were chosen to complement each other and yielded results dependent on concentration and cell line: the Methyl Tetrazolium dye assay, the Sulforhodamine B fluorescent dye assay, and the Crystal Violet dye assay.
(§2) The Sulforhodamine B and Crystal Violet assays provide information about protein and were used to complement the Methyl-Tetrazolium dye assay. […] It is used for the quantification of cellular proteins of cultured cells. The assay using Crystal Violet, a dye that binds electrostatically to proteins and stains DNA, provides a reliable, simple assay for measuring viability of cells.
(§3) The Methyl Tetrazolium, Sulforhodamine B, and Crystal Violet assays were used to assess cell viabilities. The incubation times were 24 hours, 48 hours, and 72 hours. The Nerium oleander extract Anvirzel™ (a hot water extract of oleander obtained from Salud Integral, Honduras) was tested in concentrations ranging from 0.01 ng/mL to 10 ng/mL.
(§4) Cells were detached by trypsinization (Trypsin-0.25% EDTA, Invitrogen, 25200-072) during the logarithmic phase of culture growth and plated in 96-well plates (18.000 cells/well) (Corning, Costar 359) in a final volume of 200 μl of medium per well. […] The absorbance was measured after 24 hours, 48 hours, and 72 hours of incubation.
(§5) For the Crystal Violet assay, the medium was removed from the 96-well plates, the plates rinsed with PBS (Sigma, P3813) and then the cells were […] by the addition of 10% formalin (MERCK, 1.04003.2500) for 20 minutes at RT. Formalin was removed and 0.25% aqueous crystal violet (Sigma, HT901), dissolved in water, was added for 10 minutes at RT. Unbound Crystal Violet was rinsed by washing with water and finally 33% acetic acid was added to dissolve the dye.
(§6) The optical density of each plate was measured on a μQuant spectrophotometer and the data were analyzed with Gen5 software (μQuant Biomolecular Spectrophotometer MQX200 and Gen5™ Microplate Data Collection & Analysis software, BioTek® Instruments. Inc, April 2008). Absorbance was measured at 570 nm for all assays and a second wavelength was measured in order to subtract noise. For the Methyl-Tetrazolium assay this second wavelength was 630 nm and for the Sulforhodamine B and Crystal Violet assays it was 690 nm.

[2] = tested on: CALU-1 (non-small cell lung carcinoma); test: Crystal Violet viability assay, CALU-1; type: cell-based, human
From the text: as §2, §3, §4, §5, §6

[3] = tested on: COR-L 105 (non-small cell lung carcinoma); test: Sulforhodamine B viability assay, COR-L 105; type: cell-based, human; set-up: key to SRB Average: absorbance (optical density) at 570 nm, second wavelength subtracted; conditions: for SRB Average 24 h / SRB Average 48 h / SRB Average 72 h: COR-L 105, Run 3
From the text: as §1, §2, §3, §4
For the Sulforhodamine B assay, 96-well plates were fixed by 10% trichloroacetic acid (Fluka, 91228) and were incubated at 4° C. for 1 hour. Afterwards, plates were rinsed with water and cells were stained with 0.4% Sulforhodamine B (Sigma, 341738), dissolved in 1% acetic acid (Carlo Ebra, 401422) for 15 minutes at room temperature (RT). The unbound stain was washed twice with 1% acetic acid. Finally, 10 mM Tris Buffer pH 10.5 (Sigma, T6791) was added to dissolve the dye.
as §6

N.N.[Cl][Pt][Cl] [cisplatin]
CVE Average ([1]; T47D Run 1, 24 h, 0.1 μg/ml CDDP): 0.64
CVE Average ([1]; T47D Run 1, 24 h, 10 μg/ml CDDP): 0.417
CVE Average ([1]; T47D Run 1, 48 h, 0.1 μg/ml CDDP): 0.67
CVE Average ([1]; T47D Run 1, 48 h, 1 μg/ml CDDP): 0.369
CVE Average ([1]; T47D Run 1, 48 h, 10 μg/ml CDDP): 0.518
CVE Average ([1]; T47D Run 1, 48 h, 100 μg/ml CDDP): 0.319
CVE Average ([1]; T47D Run 1, 72 h, 0.1 μg/ml CDDP): 0.654
CVE Average ([1]; T47D Run 1, 72 h, 1 μg/ml CDDP): 0.347
CVE Average ([1]; T47D Run 1, 72 h, 10 μg/ml CDDP): 0.34
CVE Average ([1]; T47D Run 1, 72 h, 100 μg/ml CDDP): 0.293
CVE Average ([1]; T47D Run 2, 24 h, 1 μg/ml CDDP): 0.385
CVE Average ([1]; T47D Run 2, 24 h, 10 μg/ml CDDP): 0.597
CVE Average ([1]; T47D Run 2, 24 h, 100 μg/ml CDDP): 0.317
CVE Average ([1]; T47D Run 2, 48 h, 0.1 μg/ml CDDP): 0.45
CVE Average ([1]; T47D Run 2, 48 h, 1 μg/ml CDDP): 0.223
CVE Average ([1]; T47D Run 2, 48 h, 10 μg/ml CDDP): 0.315
CVE Average ([1]; T47D Run 2, 72 h, 0.1 μg/ml CDDP): 1.124
CVE Average ([1]; T47D Run 2, 72 h, 1 μg/ml CDDP): 0.33
CVE Average ([1]; T47D Run 2, 72 h, 10 μg/ml CDDP): 0.334
CVE Average ([1]; T47D Run 2, 72 h, 100 μg/ml CDDP): 0.381
CVE Average ([1]; T47D Run 3, 24 h, 1 μg/ml CDDP): 0.4
CVE Average ([1]; T47D Run 3, 24 h, 10 μg/ml CDDP): 0.488
CVE Average ([1]; T47D Run 3, 24 h, 100 μg/ml CDDP): 0.385
CVE Average ([1]; T47D Run 3, 48 h, 0.1 μg/ml CDDP): 0.778
CVE Average ([1]; T47D Run 3, 48 h, 1 μg/ml CDDP): 0.435
CVE Average ([1]; T47D Run 3, 48 h, 100 μg/ml CDDP): 0.544
CVE Average ([1]; T47D Run 3, 72 h, 0.1 μg/ml CDDP): 0.722
CVE Average ([1]; T47D Run 3, 72 h, 1 μg/ml CDDP): 0.223
CVE Average ([1]; T47D Run 3, 72 h, 10 μg/ml CDDP): 0.31
CVE Average ([1]; T47D Run 3, 72 h, 100 μg/ml CDDP): 0.22
Average CVE 24 h ([2]; CALU-1 Run 1, 0.1 μg/ml CDDP): 0.554
Average CVE 48 h ([2]; CALU-1 Run 1, 0.1 μg/ml CDDP): 0.652
Average CVE 72 h ([2]; CALU-1 Run 1, 0.1 μg/ml CDDP): 0.441
Average CVE 24 h ([2]; CALU-1 Run 1, 1 μg/ml CDDP): 0.231
Average CVE 48 h ([2]; CALU-1 Run 1, 1 μg/ml CDDP): 0.661
Average CVE 72 h ([2]; CALU-1 Run 1, 1 μg/ml CDDP): 0.135
Average CVE 24 h ([2]; CALU-1 Run 1, 10 μg/ml CDDP): 0.421
Average CVE 48 h ([2]; CALU-1 Run 1, 10 μg/ml CDDP): 0.503
Average CVE 72 h ([2]; CALU-1 Run 1, 10 μg/ml CDDP): 0.157
Average CVE 24 h ([2]; CALU-1 Run 1, 100 μg/ml CDDP): 0.306
Average CVE 48 h ([2]; CALU-1 Run 1, 100 μg/ml CDDP): 0.409
Average CVE 72 h ([2]; CALU-1 Run 1, 100 μg/ml CDDP): 0.125
Average CVE 24 h ([2]; CALU-1 Run 2, 0.1 μg/ml CDDP): 0.484
Average CVE 48 h ([2]; CALU-1 Run 2, 0.1 μg/ml CDDP): 0.886
Average CVE 72 h ([2]; CALU-1 Run 2, 0.1 μg/ml CDDP): 0.786
Average CVE 24 h ([2]; CALU-1 Run 2, 1 μg/ml CDDP): 0.576
Average CVE 48 h ([2]; CALU-1 Run 2, 1 μg/ml CDDP): 0.563
Average CVE 72 h ([2]; CALU-1 Run 2, 1 μg/ml CDDP): 0.214
Average CVE 24 h ([2]; CALU-1 Run 2, 10 μg/ml CDDP): 0.64
Average CVE 48 h ([2]; CALU-1 Run 2, 10 μg/ml CDDP): 0.46
Average CVE 72 h ([2]; CALU-1 Run 2, 10 μg/ml CDDP): 0.254
Average CVE 24 h ([2]; CALU-1 Run 2, 100 μg/ml CDDP): 0.416
Average CVE 48 h ([2]; CALU-1 Run 2, 100 μg/ml CDDP): 0.352
Average CVE 72 h ([2]; CALU-1 Run 2, 100 μg/ml CDDP): 0.344
Average CVE 24 h ([2]; CALU-1 Run 3, 0.1 μg/ml CDDP, 24 h): 0.492
Average CVE 48 h ([2]; CALU-1 Run 3, 0.1 μg/ml CDDP, 48 h): 0.389
Average CVE 72 h ([2]; CALU-1 Run 3, 0.1 μg/ml CDDP, 72 h): 0.505
Average CVE 24 h ([2]; CALU-1 Run 3, 1 μg/ml CDDP, 24 h): 0.255
Average CVE 72 h ([2]; CALU-1 Run 3, 1 μg/ml CDDP, 72 h): 0.184
Average CVE 24 h ([2]; CALU-1 Run 3, 10 μg/ml CDDP, 24 h): 0.558
Average CVE 48 h ([2]; CALU-1 Run 3, 10 μg/ml CDDP, 48 h): 0.175
Average CVE 72 h ([2]; CALU-1 Run 3, 10 μg/ml CDDP, 72 h): 0.189
Average CVE 24 h ([2]; CALU-1 Run 3, 100 μg/ml CDDP, 24 h): 0.375
Average CVE 48 h ([2]; CALU-1 Run 3, 100 μg/ml CDDP, 48 h): 0.159
Average CVE 72 h ([2]; CALU-1 Run 3, 100 μg/ml CDDP, 72 h): 0.197
SRB Average 24 h ([3]; 0.1 μg/ml CDDP): 1.731
SRB Average 48 h ([3]; 0.1 μg/ml CDDP): 2.759
SRB Average 72 h ([3]; 0.1 μg/ml CDDP): 2.681
SRB Average 24 h ([3]; 1 μg/ml CDDP): 1.862
SRB Average 48 h ([3]; 1 μg/ml CDDP): 2.832
SRB Average 72 h ([3]; 1 μg/ml CDDP): 2.654
SRB Average 24 h ([3]; 10 μg/ml CDDP): 1.565
SRB Average 48 h ([3]; 10 μg/ml CDDP): 2.85
SRB Average 72 h ([3]; 10 μg/ml CDDP): 2.737
SRB Average 24 h ([3]; 100 μg/ml CDDP): 1.113
SRB Average 48 h ([3]; 100 μg/ml CDDP): 2.596
SRB Average 72 h ([3]; 100 μg/ml CDDP): 2.819
SRB Average ([3]; Run 1, 24 h, 0.1 μg/ml CDDP): 1.526
SRB Average ([3]; Run 1, 24 h, 1 μg/ml CDDP): 1.714
SRB Average ([3]; Run 1, 24 h, 10 μg/ml CDDP): 1.386
SRB Average ([3]; Run 1, 24 h, 100 μg/ml CDDP): 1.523
SRB Average ([3]; Run 1, 48 h, 0.1 μg/ml CDDP): 1.705
SRB Average ([3]; Run 1, 48 h, 1 μg/ml CDDP): 1.716
SRB Average ([3]; Run 1, 48 h, 10 μg/ml CDDP): 1.465
SRB Average ([3]; Run 1, 48 h, 100 μg/ml CDDP): 1.415
SRB Average ([3]; Run 1, 72 h, 0.1 μg/ml CDDP): 1.491
SRB Average ([3]; Run 1, 72 h, 1 μg/ml CDDP): 1.356
SRB Average ([3]; Run 1, 72 h, 10 μg/ml CDDP): 1.544
SRB Average ([3]; Run 1, 72 h, 100 μg/ml CDDP): 1.456
SRB Average ([3]; Run 2, 24 h, 0.1 μg/ml CDDP): 1.731
SRB Average ([3]; Run 2, 24 h, 1 μg/ml CDDP): 1.862
SRB Average ([3]; Run 2, 24 h, 10 μg/ml CDDP): 1.565
SRB Average ([3]; Run 2, 24 h, 100 μg/ml CDDP): 1.113
SRB Average ([3]; Run 2, 48 h, 0.1 μg/ml CDDP): 2.759
SRB Average ([3]; Run 2, 48 h, 1 μg/ml CDDP): 2.832
SRB Average ([3]; Run 2, 48 h, 10 μg/ml CDDP): 2.85
SRB Average ([3]; Run 2, 48 h, 100 μg/ml CDDP): 2.596
SRB Average ([3]; Run 2, 72 h, 0.1 μg/ml CDDP): 2.681
SRB Average ([3]; Run 2, 72 h, 1 μg/ml CDDP): 2.654
SRB Average ([3]; Run 2, 72 h, 10 μg/ml CDDP): 2.737
SRB Average ([3]; Run 2, 72 h, 100 μg/ml CDDP): 2.819
